The supplement of paper PMC10307832

Key:
Test in all cases: relative viability (nuclei count vs DMSO), 5 days (fraction); higher = more cells survive
EPLC-272H = system: EPLC-272H
Procedure, shortened: (§1)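 One day after seeding in 1536-well plates, lung cancer cell lines were dosed by pin tool. Dosing was either single-drug or a fixed anchor-drug dose plus five library-drug doses (not always all listed) in √10 steps. After 5 days, nuclei were stained in one fix-and-stain step and counted on 4× images, and relative viability is the nuclei count of treated wells over that of vehicle wells, given as the median of duplicate plates.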

NCI-H2170 = system: NCI-H2170
Procedure, shortened: as §1

NCI-H2023 = system: NCI-H2023
Procedure, shortened: as §1

NCI-H1793 = system: NCI-H1793
Procedure, shortened: as §1

UMC-11 = system: UMC-11
Procedure, shortened: as §1

NCI-H441 = system: NCI-H441
Procedure, shortened: as §1

COR-L23 = system: COR-L23
Procedure, shortened: as §1

NCI-H2347 = system: NCI-H2347
Procedure, shortened: as §1

NCI-H647 = system: NCI-H647
Procedure, shortened: as §1

NCI-H322M = system: NCI-H322M
Procedure, shortened: as §1

HCC-15 = system: HCC-15
Procedure, shortened: as §1

201T = system: 201T
Procedure, shortened: as §1

NCI-H520 = system: NCI-H520
Procedure, shortened: as §1

H3255 = system: H3255
Procedure, shortened: as §1

NCI-H1734 = system: NCI-H1734
Procedure, shortened: as §1

NCI-H3122 = system: NCI-H3122
Procedure, shortened: as §1

NCI-H2405 = system: NCI-H2405
Procedure, shortened: as §1

NCI-H1650 = system: NCI-H1650
Procedure, shortened: as §1

PC-14 = system: PC-14
Procedure, shortened: as §1

NCI-H1563 = system: NCI-H1563
Procedure, shortened: as §1

LOU-NH91 = system: LOU-NH91
Procedure, shortened: as §1

O=c1cc(N2CCOCC2)oc2c(-c3cccc4c3sc3ccccc34)cccc12 + CS(=O)(=O)N1CCN(Cc2cc3nc(-c4cccc5[nH]ncc45)nc(N4CCOCC4)c3s2)CC1 [Pictilisib] (partner 1 µM)
relative viability (EPLC-272H; first compound 0.01 µM): 0.108
relative viability (EPLC-272H; first compound 0.03162 µM): 0.242
relative viability (EPLC-272H; first compound 0.3162 µM): 0.374
relative viability (EPLC-272H; first compound 1 µM): 0.31
relative viability (NCI-H2170; first compound 0.01 µM): 0.299
relative viability (NCI-H2170; first compound 0.03162 µM): 0.331
relative viability (NCI-H2170; first compound 0.1 µM): 0.369
relative viability (NCI-H2170; first compound 0.3162 µM): 0.375
relative viability (NCI-H2170; first compound 1 µM): 0.344
relative viability (NCI-H2023; first compound 0.01 µM): 0.306
relative viability (NCI-H2023; first compound 0.03162 µM): 0.262
relative viability (NCI-H2023; first compound 0.1 µM): 0.266
relative viability (NCI-H2023; first compound 0.3162 µM): 0.275
relative viability (NCI-H2023; first compound 1 µM): 0.245
relative viability (NCI-H1793; first compound 0.01 µM): 0.289
relative viability (NCI-H1793; first compound 0.03162 µM): 0.348
relative viability (NCI-H1793; first compound 0.1 µM): 0.336
relative viability (NCI-H1793; first compound 0.3162 µM): 0.335
relative viability (NCI-H1793; first compound 1 µM): 0.35
relative viability (UMC-11; first compound 0.01 µM): 0.812
relative viability (UMC-11; first compound 0.03162 µM): 0.825
relative viability (UMC-11; first compound 0.1 µM): 0.773
relative viability (UMC-11; first compound 0.3162 µM): 0.819
relative viability (UMC-11; first compound 1 µM): 0.796
relative viability (NCI-H441; first compound 0.01 µM): 0.561
relative viability (NCI-H441; first compound 0.03162 µM): 0.483
relative viability (NCI-H441; first compound 0.1 µM): 0.487
relative viability (NCI-H441; first compound 0.3162 µM): 0.438
relative viability (NCI-H441; first compound 1 µM): 0.579
relative viability (COR-L23; first compound 0.01 µM): 0.765
relative viability (COR-L23; first compound 0.03162 µM): 0.855
relative viability (COR-L23; first compound 0.1 µM): 0.846
relative viability (COR-L23; first compound 0.3162 µM): 0.757
relative viability (COR-L23; first compound 1 µM): 0.778
relative viability (NCI-H2347; first compound 0.01 µM): 0.671
relative viability (NCI-H2347; first compound 0.03162 µM): 0.442
relative viability (NCI-H2347; first compound 0.1 µM): 0.502
relative viability (NCI-H2347; first compound 0.3162 µM): 0.802
relative viability (NCI-H2347; first compound 1 µM): 0.468
relative viability (NCI-H647; first compound 0.01 µM): 0.437
relative viability (NCI-H647; first compound 0.3162 µM): 0.578
relative viability (NCI-H647; first compound 1 µM): 0.439
relative viability (NCI-H322M; first compound 0.01 µM): 0.578
relative viability (NCI-H322M; first compound 0.03162 µM): 0.525
relative viability (NCI-H322M; first compound 0.3162 µM): 0.471
relative viability (NCI-H322M; first compound 1 µM): 0.507
relative viability (HCC-15; first compound 0.01 µM): 0.66
relative viability (HCC-15; first compound 0.03162 µM): 0.74
relative viability (HCC-15; first compound 0.1 µM): 0.939
relative viability (HCC-15; first compound 0.3162 µM): 0.774
relative viability (HCC-15; first compound 1 µM): 0.714
relative viability (201T; first compound 0.01 µM): 0.698
relative viability (201T; first compound 0.03162 µM): 0.67
relative viability (201T; first compound 0.1 µM): 0.692
relative viability (201T; first compound 0.3162 µM): 0.705
relative viability (201T; first compound 1 µM): 0.661
relative viability (NCI-H520; first compound 0.01 µM): 0.304
relative viability (NCI-H520; first compound 0.03162 µM): 0.321
relative viability (NCI-H520; first compound 0.1 µM): 0.282
relative viability (NCI-H520; first compound 0.3162 µM): 0.305
relative viability (NCI-H520; first compound 1 µM): 0.312
relative viability (H3255; first compound 0.01 µM): 0.5
relative viability (H3255; first compound 0.03162 µM): 0.513
relative viability (H3255; first compound 0.1 µM): 0.48
relative viability (H3255; first compound 0.3162 µM): 0.45
relative viability (H3255; first compound 1 µM): 0.416
relative viability (NCI-H1734; first compound 0.01 µM): 0.445
relative viability (NCI-H1734; first compound 0.03162 µM): 0.472
relative viability (NCI-H1734; first compound 0.1 µM): 0.452
relative viability (NCI-H1734; first compound 0.3162 µM): 0.504
relative viability (NCI-H1734; first compound 1 µM): 0.446
relative viability (NCI-H3122; first compound 0.01 µM): 0.623
relative viability (NCI-H3122; first compound 0.03162 µM): 0.553
relative viability (NCI-H3122; first compound 0.1 µM): 0.651
relative viability (NCI-H3122; first compound 0.3162 µM): 0.552
relative viability (NCI-H3122; first compound 1 µM): 0.57
relative viability (NCI-H2405; first compound 0.01 µM): 0.397
relative viability (NCI-H2405; first compound 0.03162 µM): 0.513
relative viability (NCI-H2405; first compound 0.1 µM): 0.443
relative viability (NCI-H2405; first compound 0.3162 µM): 0.533
relative viability (NCI-H2405; first compound 1 µM): 0.443
relative viability (NCI-H1650; first compound 0.03162 µM): 0.549
relative viability (NCI-H1650; first compound 0.1 µM): 0.56
relative viability (NCI-H1650; first compound 0.3162 µM): 0.504
relative viability (NCI-H1650; first compound 1 µM): 0.514
relative viability (PC-14; first compound 0.01 µM): 0.555
relative viability (PC-14; first compound 0.03162 µM): 0.612
relative viability (PC-14; first compound 0.1 µM): 0.553
relative viability (PC-14; first compound 0.3162 µM): 0.638
relative viability (PC-14; first compound 1 µM): 0.589
relative viability (NCI-H1563; first compound 0.01 µM): 0.626
relative viability (NCI-H1563; first compound 0.03162 µM): 0.634
relative viability (NCI-H1563; first compound 0.1 µM): 0.659
relative viability (NCI-H1563; first compound 0.3162 µM): 0.57
relative viability (NCI-H1563; first compound 1 µM): 0.559
relative viability (LOU-NH91; first compound 0.01 µM): 0.476
relative viability (LOU-NH91; first compound 0.03162 µM): 0.533
relative viability (LOU-NH91; first compound 0.1 µM): 0.525
relative viability (LOU-NH91; first compound 0.3162 µM): 0.514
relative viability (LOU-NH91; first compound 1 µM): 0.531
